Reference: US20240277670A1, “SAFE USE OF MMP-12 INHIBITOR” (Foresee Pharmaceuticals Co., Ltd., priority 2021, published 2024)
Entries after “also recorded” stand apart in the source; their conditions may differ. Like-named read-outs stand apart in the source and are kept apart here.

Assays:
Format in all cases: in vivo, human
[1] = Food effect (FE) part, plasma pharmacokinetics; settings: for AUC / AUC(0-inf) / Cmax / AUC(0-t) / half-life / Vd/F / Tmax: human, plasma, po, 200 mg; for AUC: read-out: AUC0- GM; for Vd/F: read-out: Vz/F; for Tmax: median
Protocol: In this part, eight subjects received 200 mg ASD-in-Capsule orally as a single dose in a randomized way, once under fasting conditions and once after the intake of a high fat breakfast, with a wash-out period of one week between successive dosing (FIG. 4).
Blood samples were collected post-dosing on Day 1 (at 0.5, 1, 2, 3, 4, 6, 8, 12, and 16 hours) and Day 8 (at 0.5, 1, 2, 3, 4, 6, 8, 10, 12, 16, 20, 24, 30, 36, and 48 hours) as well as immediately pre-morning dose on Days 2-7 and 2 hours post-morning dose on Days 4 and 6. Within 15 minutes of collection, blood samples were centrifuged at 2000 rpm for 10 minutes at 4° C., and, subsequently, the plasma was aliquoted, frozen, and stored at −70° C. pending PK analyses.
The samples were subjected to liquid chromatography followed by analyses by tandem mass spectrometry. The lower limit of quantification for the compound of formula (I) was 5 ng/mL.
The plasma PK parameters were derived by non-compartmental analyses using Phoenix® WinNonlin® version 6.3 or higher (Pharsight Corporation Inc., Mountain View, CA, USA). PK variables were summarized using arithmetic mean, standard deviation, median, minimum, maximum, the percent coefficient of variation, geometric mean, and a two-sided 95% confidence limit of the arithmetic mean and the geometric mean.
For the evaluations of food effect on the PK profile of the compound of formula (I), the analysis of variance (ANOVA) model included sequence, treatment, and period as fixed effects and subject nested within sequence as a random effect using the SASR mixed model procedure. Each ANOVA included calculation of Least Squares Means (LSM), the difference between LSM under fed condition (Test) over fasted condition (Reference), and the standard error associated with this difference.

[2] = Single ascending dose (SAD) study, safety and tolerability
Protocol: Eight cohorts of eight subjects each (six on active and two on placebo) were enrolled. Two different oral formulations of the compound of formula (I) were tested. The initial formulation was neat active pharmaceutical ingredient (API) filled in oral capsules of the compound of formula (I) (API-in-Capsule) which was tested at three dose levels: 200 mg, 400 mg, and 800 mg. Subsequently, an improved oral formulation was tested, the amorphous solid dispersion (ASD) of the compound of formula (I) (ASD-in-Capsule) at five dose levels: 50 mg, 100 mg, 200 mg, 350 mg, and 450 mg (FIG. 1).
(§1) Safety and tolerability were assessed at pre-specified timepoints throughout the studies by AEs reporting, vital signs measurements, physical examination, laboratory tests, and ECG examinations.
(§2) Safety and tolerability data were evaluated for the treated population (all participants who took at least one dose of study medications). […] Descriptive statistics were used to evaluate the safety and tolerability data and for plasma concentrations and PK parameters of the compound of formula (I).

[3] = Multiple ascending dose (MAD) part, safety and tolerability; settings: for Adverse events possibly-related to drug administration: Multiple ascending dose, ASD formulation
Protocol: Three cohorts of eight subjects each (six on active and two on placebo) were enrolled and received the following treatments orally: 100 mg, 200 mg, and 400 mg ASD-in-Capsule b.i.d. (one dose on Days 1 and 8, twice-daily doses from Days 2 to 7) (FIG. 4).
as §1
as §2, with “evaluate the for safety and” for “evaluate the safety and”

[4] = 200 mg single oral dose, fed over fasted, geometric least-squares mean ratio
[5] = Treatment D: single oral dose 200 mg ASD-in-Capsule, fasted, mean
[6] = Treatment E: single oral dose 200 mg ASD-in-Capsule, fed (high-fat, high-calorie breakfast), mean

AUC0- GMR Treatment E/D [1, 4]: 103.42 percentage
AUC0-inf GMR Treatment E/D [1, 4]: 102.76 percentage
Cmax GMR Treatment E/D [1, 4]: 74.53 percentage
CL/F [1, 5]: 32.3 L/h
Kel [1, 5]: 0.0796 h⁻¹
CL/F [1, 6]: 32.3 L/h
Kel [1, 6]: 0.0917 h⁻¹
AUC ([1]; Treatment D: 200 mg single oral dose, fasted, geometric least-squares mean): 6260 ng·h/mL
AUC(0-inf) ([1]; Treatment D: 200 mg single oral dose, fasted, geometric least-squares mean, read-out: AUC0-inf GM): 6400 ng·h/mL
Cmax ([1]; Treatment D: 200 mg single oral dose, fasted, geometric least-squares mean, read-out: Cmax GM): 1020 ng/mL
AUC(0-t) [1, 5]: 6490 ng·h/mL
half-life [1, 5]: 9.36 h
AUC(0-inf) ([1]; Treatment D: single oral dose 200 mg ASD-in-Capsule, fasted, mean, read-out: AUC0-inf): 6620 ng·h/mL
Cmax ([1]; Treatment D: single oral dose 200 mg ASD-in-Capsule, fasted, mean, read-out: Cmax): 1050 ng/mL
Vd/F [1, 5]: 446 L
Tmax ([1]; Treatment D: single oral dose 200 mg ASD-in-Capsule, fasted): 1 h
AUC ([1]; Treatment E: 200 mg single oral dose, fed, geometric least-squares mean): 6480 ng·h/mL
AUC(0-inf) ([1]; Treatment E: 200 mg single oral dose, fed, geometric least-squares mean, read-out: AUC0-inf GM): 6580 ng·h/mL
Cmax ([1]; Treatment E: 200 mg single oral dose, fed, geometric least-squares mean, read-out: Cmax GM): 764 ng/mL
AUC(0-t) [1, 6]: 6800 ng·h/mL
half-life [1, 6]: 8.09 h
AUC(0-inf) ([1]; Treatment E: single oral dose 200 mg ASD-in-Capsule, fed (high-fat, high-calorie breakfast), mean, read-out: AUC0-inf): 6900 ng·h/mL
Cmax ([1]; Treatment E: single oral dose 200 mg ASD-in-Capsule, fed (high-fat, high-calorie breakfast), mean, read-out: Cmax): 787 ng/mL
Vd/F [1, 6]: 383 L
Tmax ([1]; Treatment E: single oral dose 200 mg ASD-in-Capsule, fed (high-fat, high-calorie breakfast)): 2.5 h
SMILES: Cc1cccc(COc2ccc(Sc3ccoc3C3NC(=O)NC3=O)cc2)c1 (stereo not shown) [compound of formula (I)]
Safety and tolerability, overall ([2]; across all dose levels studied): safe and generally well-tolerated
Severe or serious AEs ([2]; all dose levels and both formulations): No severe or serious AEs were reported
Changes from baseline in weight, vital signs, physical examination, laboratory or ECG data ([2]; any time point): No clinically relevant changes
Total number of AEs possibly related to treatment ([3]; MAD study, all dose levels): seven
Adverse events possibly-related to drug administration ([3]; 100 mg): fatigue; also recorded: cough
Adverse events possibly-related to drug administration ([3]; 200 mg): eye irritation; also recorded: erythema; also recorded: dizziness; also recorded: skin rash
Severe or serious AEs ([3]; Study II (MAD and FE parts)): No severe or serious AEs were reported
Changes from baseline in weight, vital signs, physical examination, laboratory or ECG data ([3]; Study II (MAD and FE parts), any time point): No clinically relevant changes
Safety and tolerability, overall ([3]; across all dose levels and dosing regimens studied): safe and generally well-tolerated
